This note sets out measurements from patent US20130252890A1, “6,7-DIHYDRO-5H-BENZO[7]ANNULENE DERIVATIVES, PROCESS FOR PREPARATION THEREOF, PHARMACEUTICAL PREPARATIONS COMPRISING THEM, AND THE USE THEREOF FOR PRODUCTION OF MEDICAMENTS” (BAYER INTELLECTUAL PROPERTY GMBH, priority 2010, published 2013).

Data set [1] deals with ovarian estradiol synthesis. Description: Stimulation of ovarian oestrogen synthesis (HPG axis) in intact adult rats. It counts as in vivo, rat. The note with it: hormonally intact adult rats, daily for 10 days; quotient of peripheral estradiol values after and before treatment. From the text: The clinical use both of pure anti-oestrogens and of various SERMs for the treatment of premenopausal women is limited by their property of stimulating the ovaries through activation of the hypothalamic-pituitary-gonadal axis (HPG axis), which leads to the increase in peripheral estradiol levels (Palomba, S., Orio, F., Jr., Morelli, M., Russo, T., Pellicano, M., Zupi, E., Lombardi, G., Nappi, C., Panici, P. L., and Zullo, F. (2002). Raloxifene administration in premenopausal women with uterine leiomyomas: a pilot study. J Clin Endocrinol Metab 87, 3603-3608). This stimulation of the HPG axis is associated with penetration of the blood-brain barrier and penetration of the brain. To investigate the ovary-stimulating properties of the claimed pharmacological compounds, hormonally intact adult rats were treated with the substances daily for a period of 10 days. The study end point is the quotient of peripheral estradiol values after and before treatment.

In a further data set the test system is uterus. Description: Anti-uterus growth test in the adult rat. The conditions noted are these: sc, 72 h; ovariectomized adult rat, s.c. 3 days with 1.5 μg/kg/day 17β-estradiol; inhibition of uterus growth; value of 44 is a mean of two measurements; read-out: anti-oestrogenic activity in vivo in % at a dose of 0.3 mg/kg (rat). From the text: The uterus of oestrogen-substituted rats can be used as a test model for detecting a direct action of substances with anti-oestrogenic properties. The parameter of oestrogenic action is estradiol-induced uterus growth in rats, which is inhibited by simultaneous administration of a substance with anti-oestrogenic action. The experimental animals (n=5-6 animals/group) were ovariectomized before the start of the test, to rule out the influence of endogenous oestrogens. After a phase of 6 to 10 days, the test substances are administered s.c. on 3 consecutive days (d1-d3) in combination with a substitution dose of 1.5 μg/kg/day 17β-estradiol. 17β-estradiol alone serves as positive control, and the excipients serve as negative control. On day 4 (d4) the animals are killed, and the uteri and vaginae are removed and weighed. The organ weights are converted to mg/100 g body weight, then the mean value and the standard deviation are calculated for each dosage. The inhibition of uterus growth induced by 17β-estradiol is shown as percentage inhibition.

As to `CN(CCCCCCC1=C(c2cc(F)cc(F)c2)CCCc2cc(O)ccc21)CCCCS(=O)(=O)CCCC(F)(F)F` [Example 44, 8-(3,5-Difluorophenyl)-9-[6-(methyl{4-[(4,4,4-trifluorobutyl)sulphonyl]butyl}amino)hexyl]-6,7-dihydro-5H-benzo[7]annulen-3-ol], the “Stimulation of ovarian oestrogen synthesis: factor at a dose of 3 mg/kg rat” value in data set [1] stood at 1.2. For the same compound, the inhibition in vivo at 0.3 mg/kg with uterus came to 37%.
